From patent US20220251054A1, “Analogues and Methods of Treating Rett Syndrome” (The Regents of the University of California, priority 2019, published 2022)
Entries after “also recorded” stand apart in the source; their conditions may differ.

Tests used:
Cx+GE organoids = experiment: Live organoid calcium imaging (GCaMP6f) with GABAA receptor antagonist; format: cell-based, human; details: for synchronization of calcium transients / neural activities: Cx+GE organoids, bicuculline methiodide 100 μM or gabazine 25 μM
Cx+Cx organoids = experiment: as above; format: cell-based, human; details: for synchronization of calcium transients / neural activities: Cx+Cx organoids, bicuculline methiodide 100 μM or gabazine 25 μM
Mut Cx+GE organoids = experiment: Extracellular recording of local field potentials (LFP) in Rett syndrome fusion organoids; format: cell-based, human; details: for high frequency oscillations (HFOs, about 200-500 Hz) / lower frequency / gamma oscillations (about 40-80 Hz) / spiking activity / spike frequency: Mut Cx+GE organoids treated 48-hr; for high frequency oscillations (HFOs, about 200-500 Hz) / lower frequency / gamma oscillations (about 40-80 Hz): 2 mM VPA or 10 μM Pifithrin-α; for spiking activity / spike frequency: 2 mM sodium valproate (VPA) or 10 μM Pifithrin-α
Mutant IPSCs = format: cell-based; details: 10 μM, 48 hours
P53 = P53 (Homo sapiens, UniProt P04637); details: cited from earlier work
[1] = system: MECP2− (Mutant) interneurons; experiment: P21 protein immunofluorescence (senescence marker) in treated neurons; format: cell-based; details: 10 μM, 48 hours, WT and Mutant interneurons

Chain of P53 (P04637 whole entry): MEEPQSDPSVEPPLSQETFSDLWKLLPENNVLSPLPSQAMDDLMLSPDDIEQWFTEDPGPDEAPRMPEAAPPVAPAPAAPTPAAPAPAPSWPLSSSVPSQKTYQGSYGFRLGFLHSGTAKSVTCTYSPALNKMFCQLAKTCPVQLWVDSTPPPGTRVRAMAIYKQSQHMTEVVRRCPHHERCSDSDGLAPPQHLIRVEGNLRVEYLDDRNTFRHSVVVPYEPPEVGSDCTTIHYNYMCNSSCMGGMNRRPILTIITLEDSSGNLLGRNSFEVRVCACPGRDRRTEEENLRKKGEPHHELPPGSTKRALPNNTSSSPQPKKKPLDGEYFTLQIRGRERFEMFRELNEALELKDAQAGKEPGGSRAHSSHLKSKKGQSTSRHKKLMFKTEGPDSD

SMILES | synchronization of calcium transients / neural activities (Cx+GE organoids) | synchronization of calcium transients / neural activities (Cx+Cx organoids) | high frequency oscillations (HFOs, about 200-500 Hz) (Mut Cx+GE organoids) | lower frequency / gamma oscillations (about 40-80 Hz) (Mut Cx+GE organoids) | spiking activity / spike frequency (Mut Cx+GE organoids) | increased levels of P53 target genes (RT-PCR) (Mutant IPSCs) | other results
C[N+]1(C)CCc2cc3c(cc2[C@H]1[C@@H]1OC(=O)c2c1ccc1c2OCO1)OCO3.[I-] [BMI, bicuculline methiodide] | spontaneous synchronization of neural activities; also recorded: epochs of nearly complete synchronization of calcium transients | minimal effect; also recorded: no such effect | – | – | – | – | hierarchical clustering: groups of neurons with correlated activity (Cx+GE organoids; Cx+GE organoids following BMI treatment): large groups of neurons with highly correlated activity; hierarchical clustering: groups of neurons with correlated activity (Cx+Cx organoids; Cx+Cx organoids following BMI treatment): only small groups
COc1ccc(-c2ccc(=N)n(CCCC(=O)O)n2)cc1 [Gabazine] | epochs of nearly complete synchronization of calcium transients | no such effect | – | – | – | – | –
Cc1ccc(C(=O)Cn2c3c(sc2=N)CCCC3)cc1 [Pifithrin α, 2-(2-imino-4,5,6,7-tetrahydrobenzo[d]thiazol-3(2H)-yl)-1-(p-tolyl)ethan-1-one hydrogen bromide] | – | – | suppressed HFOs | re-emergence of gamma oscillations | similarly reduced spike frequency | abrogated | oscillatory activity (extracellular recording) (Mut Cx+GE organoids; Mut Cx+GE organoids (RTT) exposed to 10 μM for 48 hours, Day 100): reveal oscillatory activity at multiple frequencies; sustained oscillatory activity (PSD) (Mut Cx+GE organoids; Mut Cx+GE organoids exposed to 100 μM for 48 hours, Day 100): shows rescue of sustained oscillatory activity; P53 inhibition (P53): effective P53 inhibitor; cell senescence (P21 protein level by immunofluorescence) [1]: block cell senescence due to increased p53 activity
CC(=O)/N=c1\sc2c(n1CC(=O)c1ccc(C)cc1)CCCC2 [Pifithrin α-Ac, N-(3-(2-oxo-2-(p-tolyl)ethyl)-4,5,6,7-tetrahydrobenzo[d]thiazol-2(3H)-ylidene)aceta-mide] | – | – | – | – | – | abrogated | –
Cc1ccc(-c2cn3c4c(sc3n2)CCCC4)cc1 [Pifithrin β, 2-(p-tolyl)-5,6,7,8-tetrahydroben-zo[d]imidazo[2,1-b]thiazole] | – | – | – | – | – | abrogated | –
CCCC(CCC)C(=O)[O-].[Na+] [VPA, sodium valproate] | – | – | neither decreased HFOs | nor restored lower frequency oscillations | significantly reduced spiking activity | – | –
